Assays:
[1] = test system: mesentery arterioles; experiment: Vasodilator properties, microcirculatory vessel responsiveness to noradrenalin, arterioles; assay type: in vivo, Wistar male rats
Description: Vasodilator properties of N,N′-substituted piperazines were evaluated according to their influence on microcirculatory vessel responsiveness.
The studies were done on Wistar male rats with mass of 300±30 g (laboratory animals nursery “Rappolovo”, RAMS). The animals were kept with unlimited food (standard ration for laboratory rats K-120 by <<Inform-korm>>, Russia) and water allowance.
The solutions of N,N′-substituted piperazines and physiological (control) solution were introduced via bolus injection within 1 min into caudal vein of non-anaesthetized animals according to the dosage of 5.0 ml per 1 kg. Immediately after the introduction the animals were put in separate standard cages for observation.
In 30 min after the injection the animals were anaesthetized (thiopental sodium, 60 mg/kg intraperitoneally). The loop of small intestine adjoined to mesoappendix was retrieved through inferomedian incision. To study microcirculation in mesentery venules and arterioles in transmitted light the rat was placed on thermostated microscope objective table. The application of noradrenalin solution (Aguettant, 2 mg/ml, Laboratoire AGUETTANT, France) was done directly on the mesentery (Furness J. B., Marshall J. M., 1974; Yantareva L. I., 2004).
The study of microcirculatory vessels was done with LUMAM I1 microscope (LOMO, Russia). The recording of video data was done with the camera (Optics and Electronics ISTA Ltd) attached to a personal computer. The processing of data was done with Video-Test 4.0 software (ISTA Ltd., Russia). The diameter of the vessel wall (D, m) before and after the application of noradrenalin and the starting time of blood flow slowdown induced by noradrenalin were measured (the measurements were done for 1 min after the application).

[2] = test system: experimental photothrombosis; experiment: Experimental photothrombosis model, arterial blood velocity; assay type: in vivo, Wistar male rats
Description: The studies were done on Wistar male rats with mass of 230±30 g (laboratory animals nursery “Rappolovo”, RAMS). The animals were kept with unlimited food (standard ration for laboratory rats K-120 by <<Inform-korm>>, Russia) and water allowance. […]
Thrombosis modeling: the drugs were introduced into left femoral vein, in 50 min afterwards 1 ml of Bengal rose A photosensitizer (Acros Organics, USA) solution was introduced with dose of 17 mg/kg [Boselli 2007, Petrischev 2009]. Then the incision of internal surface of animal right thigh about 2 cm in length was made. The section of the femoral vein about 5 mm in length was released from surrounding tissues and separated from neurovascular bundle. Beneath this section of the vein the black non-transparent plastic strip 3 mm in width was laid to screen off the vein and surrounding tissues from radiation. The irradiation was done using diode laser <<DPSS-laser>> (Diode Pumped Solid State Laser, South Korea) with 532 nm wavelength and 60 mW power. The area of irradiation was 1 mm^2, exposing time was 40 min. The blood flow in femoral artery was measured by high frequency Doppler ultrasonography method (<<Minimax-Doppler-K>> apparatus, frequency of sensor was 20 MHz). The blood velocity alteration due to irradiation was measured (Table 9).

[3] = 0.01 mmol/kg, noradrenalin 10^−6 g/ml
[4] = 0.025 mmol/kg, noradrenalin 10^−7 g/ml

O=C(O)/C=C/c1ccc(Cn2ccnc2)cc1 [Ozagrel, reference compound]
% of vessel constriction [1, 3]: 80%
Blood flow slowdown, Latent period of slowdown [1, 3]: 27 ± 6 s
% of vessel constriction [1, 4]: 27%
Blood flow slowdown, Latent period of slowdown, s [1, 4]: No slowdown
V, cm/s (arterial blood velocity) ([2]; 0.01 mmol/kg, 0 min of irradiation): 10.9 ± 2.9 cm/s
V, cm/s (arterial blood velocity) ([2]; 0.01 mmol/kg, 10 min of irradiation): 5.7 ± 1.8 cm/s
V, cm/s (arterial blood velocity) ([2]; 0.01 mmol/kg, 20 min of irradiation): Absence of blood flow
V, cm/s (arterial blood velocity) ([2]; 0.01 mmol/kg, 30 min of irradiation): Absence of blood flow
V, cm/s (arterial blood velocity) ([2]; 0.01 mmol/kg, 40 min of irradiation): Absence of blood flow
V, cm/s (arterial blood velocity) ([2]; 0.025 mmol/kg, 0 min of irradiation): 9.0 ± 2.7 cm/s
V, cm/s (arterial blood velocity) ([2]; 0.025 mmol/kg, 10 min of irradiation): 5.1 ± 1.7 cm/s
V, cm/s (arterial blood velocity) ([2]; 0.025 mmol/kg, 20 min of irradiation): 3.8 ± 1.0 cm/s
V, cm/s (arterial blood velocity) ([2]; 0.025 mmol/kg, 30 min of irradiation): 5.5 ± 1.4 cm/s
V, cm/s (arterial blood velocity) ([2]; 0.025 mmol/kg, 40 min of irradiation): 5.8 ± 1.7 cm/s
